From patent US20160295864A1 (priority 2014, published 2016)

How the values were obtained:
[1] = system: Pyricularia oryzae (Magnaporthe grisea); test: microbe, parasite or virus in culture; assay type: cell-based; conditions: read-out: Magnaporthe grisea inhibition
[2] = system: Botrytis cinerea AARF-033; test: Antifungal activity test against rice Botrytis cinerea (96 well microplate, conidia in glucose broth); assay type: cell-based; conditions: AARF033, 96 h, conidia 1×10^4 conidia/ml, stationary culturing for 4 days at 25° C.
Source text: Test specimens (compound (4a-2) and compound (4b-2)), (compound (4a-3) and compound (4b-3)), and reference compounds i.e. iprodione and Captan, were each independently dissolved in dimethyl sulfoxide (DMSO) and adjusted to a concentration of 10,000 ppm. The test solution was dispensed 2 μ/ml in a flat-bottomed 96 well microplate, and then, conidia of rice Botrytis cinerea (Botrytis cinerea AARF-033) cultured on glucose agar medium, suspended in glucose broth and adjusted to 1×10^4 conidia/ml, were dispensed 198 μ/mL, followed by stirring by a micromixer. At that time, the concentrations of the test specimen and the reference compound, were 100 ppm. Thereafter, the antimicrobial activities were evaluated by stationary culturing for 4 days at 25° C.

**Q.** For `CCCCNC(=O)n1c(NC(=O)OC)nc2ccccc21` [Benomyl, benomyl], which inhibition at 100 ppm [1] is on record?
**A.** ≥ 95%

**Q.** `O=C1C2CC=CCC2C(=O)N1SC(Cl)(Cl)Cl` (stereo not shown) [Captan] was tested. Which inhibition at 100 ppm [2] did it give?
**A.** ≥ 95%

**Q.** `CO/N=C(/C1=NOCCO1)c1ccccc1Oc1ncnc(Oc2ccccc2Cl)c1F` [Fluoxastrobin, fluoxastrobin] was tested. Which inhibition at 100 ppm [1] did it give?
**A.** ≥ 95%

**Q.** How did the inhibition at 100 ppm [2] turn out when `CC(C)NC(=O)N1CC(=O)N(c2cc(Cl)cc(Cl)c2)C1=O` [Iprodione, iprodione] was run?
**A.** ≥ 95%
